{"source": "patent US4565861A", "about": "“Serirubicum” (Microbial Chemistry Research Foundation, priority 1983, dated 1986)", "key": {"[1]": {"test_system": "DNA synthesis in L1210 cells", "assay": "Inhibition of DNA synthesis in L1210 cells", "assay_type": "cell-based", "description": "(§1) These findings indicated its therapeutic effect on tumors in experimental animals."}, "[2]": {"test_system": "Protein synthesis in L1210 cells", "assay": "Inhibition of protein synthesis in L1210 cells", "assay_type": "cell-based", "details": "at 10 μg/ml", "description": "as §1"}, "S. aureus MS9610": {"test_system": "S. aureus MS9610", "assay": "Antimicrobial activity, agar dilution method", "assay_type": "cell-based", "description": "(§2) The antimicrobial activity of serirubicin according to the present invention was examined. It is expressed as minimum inhibitory concentration (MIC) determined by the agar dilution method."}, "S. aureus Smith": {"test_system": "S. aureus Smith", "assay": "Antimicrobial activity, agar dilution method", "assay_type": "cell-based", "description": "as §2"}, "M. lysodeikticus IF03333": {"test_system": "M. lysodeikticus IF03333", "assay": "Antimicrobial activity, agar dilution method", "assay_type": "cell-based", "description": "as §2"}, "B. cereus ATCC10702": {"test_system": "B. cereus ATCC10702", "assay": "Antimicrobial activity, agar dilution method", "assay_type": "cell-based", "description": "as §2"}, "Sal. typhi T-63": {"test_system": "Sal. typhi T-63", "assay": "Antimicrobial activity, agar dilution method", "assay_type": "cell-based", "description": "as §2"}, "Coryn. bovis 1810": {"test_system": "Coryn. bovis 1810", "assay": "Antimicrobial activity, agar dilution method", "assay_type": "cell-based", "description": "as §2"}, "S. aureus 209P": {"test_system": "S. aureus 209P", "assay": "Antimicrobial activity, agar dilution method", "assay_type": "cell-based", "description": "as §2"}, "S. aureus MS8710": {"test_system": "S. aureus MS8710", "assay": "Antimicrobial activity, agar dilution method", "assay_type": "cell-based", "description": "as §2"}, "B. subtilis PCI219": {"test_system": "B. subtilis PCI219", "assay": "Antimicrobial activity, agar dilution method", "assay_type": "cell-based", "description": "as §2"}, "L1210 leukemia cells": {"test_system": "L1210 leukemia cells", "assay_type": "in vivo, CDF1 mice", "details": "i.p., daily for 10 days", "description": "CDF1 mice were intraperitoneally implanted with 1×10^5 L1210 leukemia cells/mouse as a suspension. After the implantation, 0.25 ml of a solution containing the test compound was intraperitoneally injected into each mouse, each day, for 10 days, beginning on the day of implantation.\nThe increase of life span (%) compared with the control group consisting of mice administered with physiological saline solution instead of the test compound solution was calculated from the following equation: [formula]"}, "L1210 cells": {"test_system": "L1210 cells", "assay": "Growth inhibition of cultured L1210 cells", "assay_type": "cell-based", "description": "as §1"}, "[3]": {"test_system": "RNA synthesis in L1210 cells", "assay": "Inhibition of RNA synthesis in L1210 cells", "assay_type": "cell-based", "description": "as §1"}}, "note": "Read-outs that look alike come from different tables or passages of the source."}
{"compound": "CCC1(O)CC(OC2CC(N(C)C)C(OC3CC4OC5CC(=O)C(C)OC5OC4C(C)O3)C(C)O2)c2cc3c(c(O)c2C1OC1CC(N(C)C)C(OC2CC4OC5CC(=O)C(C)OC5OC4C(C)O2)C(C)O1)C(=O)c1cccc(O)c1C3=O", "note": "(stereo not drawn) [serirubicin]", "values": [{"measurement": "ID50 DNA synthesis", "setting": "[1]", "value": 0.46, "unit": "µg/mL"}, {"measurement": "Protein synthesis inhibition", "setting": "[2]", "value": 32, "unit": "%"}, {"measurement": "MIC", "setting": "S. aureus MS9610", "value": 0.78, "unit": "µg/mL"}, {"measurement": "MIC", "setting": "S. aureus Smith", "value": 1.56, "unit": "µg/mL"}, {"measurement": "MIC", "setting": "M. lysodeikticus IF03333", "value": 0.78, "unit": "µg/mL"}, {"measurement": "MIC", "setting": "B. cereus ATCC10702", "value": 0.78, "unit": "µg/mL"}, {"measurement": "MIC", "setting": "Sal. typhi T-63", "value": "> 3.12", "unit": "µg/mL"}, {"measurement": "MIC", "setting": "Coryn. bovis 1810", "value": 0.39, "unit": "µg/mL"}, {"measurement": "MIC", "setting": "S. aureus 209P", "value": 0.78, "unit": "µg/mL"}, {"measurement": "MIC", "setting": "S. aureus MS8710", "value": 0.78, "unit": "µg/mL"}, {"measurement": "MIC", "setting": "B. subtilis PCI219", "value": 0.78, "unit": "µg/mL"}, {"measurement": "Increase of life span", "setting": "L1210 leukemia cells; 0.031 mg/kg/day", "value": 119, "unit": "%"}, {"measurement": "Increase of life span", "setting": "L1210 leukemia cells; 0.063 mg/kg/day", "value": 113, "unit": "%"}, {"measurement": "Increase of life span", "setting": "L1210 leukemia cells; 0.125 mg/kg/day", "value": 137, "unit": "%"}, {"measurement": "Increase of life span", "setting": "L1210 leukemia cells; 0.25 mg/kg/day", "value": 274, "unit": "%"}, {"measurement": "Increase of life span", "setting": "L1210 leukemia cells; 0.5 mg/kg/day", "value": 143, "unit": "%"}, {"measurement": "Increase of life span", "setting": "L1210 leukemia cells; 1.0 mg/kg/day", "value": 149, "unit": "%"}, {"measurement": "ID50 Growth", "setting": "L1210 cells; L1210 cells", "value": 0.004, "unit": "µg/mL"}, {"measurement": "Inhibition of growth (in words)", "setting": "L1210 cells; cultured L1210 cells", "value": "inhibited the growth of cultured L1210 cells at very low concentrations"}, {"measurement": "ID50 RNA synthesis", "setting": "[3]; L1210 cells", "value": 0.086, "unit": "µg/mL"}, {"measurement": "Inhibition of RNA synthesis (in words)", "setting": "[3]; cultured L1210 cells", "value": "RNA synthesis was inhibited at particularly low concentration"}]}
